Measured values published in patent US20210392895A1, “NOVEL OXADIAZOLES” (PI INDUSTRIES LIMITED, priority 2018, published 2021).

What was measured:
Fusarium culmorum = Fusarium culmorum (foot rot of cereals) in vitro test, radial growth on Potato Dextrose Agar; type: cell-based; details: 168 h, 25° C., seven days, read-out: control compared to the untreated check (radial growth)
Corynespora cassicola = Corynespora cassicola (leaf spot of tomato) in vitro test, radial growth on Potato Dextrose Agar; type: cell-based; details: 168 h, compared to the untreated check, radial growth after seven days, read-out: control
Phakopsora pachyrhizi = Phakopsora pachyrhizi test in soybean (greenhouse, preventive activity, disease severity rating); type: in vivo; details: preventive spray on soybean, compared to the untreated check
How it was run: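 Greenhouse-raised young soybean plants sprayed with compound at stated rates, then inoculated one day later with 2.1×10^6 P. pachyrhizi spores and held at 25° C, 90% RH. Disease severity (0-100%) rated visually 3, 7, 10 and 15 days after application; % control calculated versus untreated plants.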

Botrytis cinerea = Botrytis cinerea (gray mold) in vitro test, radial growth on Potato Dextrose Agar; type: cell-based; details: 168 h, compared to the untreated check, radial growth after seven days, read-out: control
Pyricularia oryzae = experiment: microbe, parasite or virus in culture; type: cell-based; details: 168 h, read-out: control
Alternaria solani = Alternaria solani (early blight of tomato/potato) in vitro test, radial growth on Potato Dextrose Agar; type: cell-based; details: 168 h, compared to the untreated check, radial growth after seven days, read-out: control
Rhizoctonia solani = Rhizoctonia solani (rice sheath blight/potato black scurf) in vitro test, radial growth on Potato Dextrose Agar; type: cell-based; details: 168 h, compared to the untreated check, radial growth after seven days, read-out: control
Colletotrichum capsici = Colletotrichum capsici (anthracnose) in vitro test, radial growth on Potato Dextrose Agar; details: Colletotrichum truncatum, 168 h, read-out: control
Experimental: Compounds were dissolved in 0.3% DMSO and then added to Potato Dextrose Agar medium just prior to dispensing it into petri dishes. 5 mL medium with compound in the desired concentration was dispensed into 60 mm sterile petri-plates. After solidification, each plate was seeded with a 5 mm size mycelial disc taken form the periphery of an actively growing virulent culture plate. Plates were incubated in growth chambers at 25° C. temperature and 60% relative humidity for seven days and radial growth was measured.

CC(=O)N1CC[C@H](Oc2ccc(-c3noc(C(F)(F)F)n3)cc2)C1 [Compound 2, (S)-1-(3-(4-(5-(trifluoromethyl)-1,2,4-oxadiazol-3-yl)phenoxy)pyrrolidin-1-yl)ethan-1-one]
> 70%: inhibition of growth at 300 ppm (Fusarium culmorum) | inhibition of growth at 300 ppm (Corynespora cassicola) | pest or weed control at 500 ppm (Phakopsora pachyrhizi) | inhibition of growth at 300 ppm (Botrytis cinerea) | inhibition of growth at 300 ppm (Pyricularia oryzae) | inhibition of growth at 300 ppm (Alternaria solani) | inhibition of growth at 300 ppm (Rhizoctonia solani) | inhibition of growth at 300 ppm (Colletotrichum capsici)

CC(=O)N1CC[C@H](Oc2ccc(-c3noc(C(F)(F)F)n3)cc2F)C1 [Compound 69, (S)-1-(3-(2-fluoro-4-(5-(trifluoromethyl)-1,2,4-oxadiazol-3-yl)phenoxy)pyrrolidin-1-yl)ethan-1-one]
> 70%: inhibition of growth at 300 ppm (Fusarium culmorum) | inhibition of growth at 300 ppm (Corynespora cassicola) | inhibition of growth at 300 ppm (Botrytis cinerea) | inhibition of growth at 300 ppm (Pyricularia oryzae) | inhibition of growth at 300 ppm (Alternaria solani) | inhibition of growth at 300 ppm (Rhizoctonia solani) | inhibition of growth at 300 ppm (Colletotrichum capsici)

CC(=O)N1CC(N(C)c2ccc(-c3noc(C(F)(F)F)n3)cc2)C1 [Compound 89, 1-(3-(methyl(4-(5-(trifluoromethyl)-1,2,4-oxadiazol-3-yl)phenyl)amino)azetidin-1-yl)ethan-1-one]
> 70%: inhibition of growth at 300 ppm (Fusarium culmorum) | inhibition of growth at 300 ppm (Corynespora cassicola) | inhibition of growth at 300 ppm (Botrytis cinerea) | inhibition of growth at 300 ppm (Pyricularia oryzae) | inhibition of growth at 300 ppm (Alternaria solani) | inhibition of growth at 300 ppm (Rhizoctonia solani) | inhibition of growth at 300 ppm (Colletotrichum capsici)

CC(=O)N1CCC(Oc2ccc(-c3noc(C(F)(F)F)n3)cc2)CC1 [Compound 95, 1-(4-(4-(5-(trifluoromethyl)-1,2,4-oxadiazol-3-yl)phenoxy)piperidin-1-yl)ethan-1-one]
> 70%: inhibition of growth at 300 ppm (Fusarium culmorum) | inhibition of growth at 300 ppm (Corynespora cassicola) | inhibition of growth at 300 ppm (Botrytis cinerea) | inhibition of growth at 300 ppm (Pyricularia oryzae) | inhibition of growth at 300 ppm (Alternaria solani) | inhibition of growth at 300 ppm (Rhizoctonia solani) | inhibition of growth at 300 ppm (Colletotrichum capsici)

CCC(=O)N1CC(N(C)c2ccc(-c3noc(C(F)(F)F)n3)cc2)C1 [Compound 100, 1-(3-(methyl(4-(5-(trifluoromethyl)-1,2,4-oxadiazol-3-yl)phenyl)amino)azetidin-1-yl)propan-1-one]
> 70%: inhibition of growth at 300 ppm (Fusarium culmorum) | inhibition of growth at 300 ppm (Corynespora cassicola) | pest or weed control at 500 ppm (Phakopsora pachyrhizi) | inhibition of growth at 300 ppm (Botrytis cinerea) | inhibition of growth at 300 ppm (Pyricularia oryzae) | inhibition of growth at 300 ppm (Alternaria solani) | inhibition of growth at 300 ppm (Rhizoctonia solani) | inhibition of growth at 300 ppm (Colletotrichum capsici)
